According to patent US20260166039A1 (SCHRÖDINGER, INC., priority 2022, published 2026):

Assays:
[1] = tested on: phosphorylation of Cdc2 Y15 (Wee1 substrate) in A427 cells; assay: Phosphorylated Cdc2 MSD Electrochemiluminescence Assay; type: cell-based; settings: Homo sapiens, A-427, class symbols, read-out: A427 pCDC2 MSD IC50
Procedure, shortened: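 Read-out: percent residual phospho-Cdc2 Y15 relative to DMSO and positive-control Wee1 inhibitor, measured by MSD electrochemiluminescence capture/detection antibody assay in cell lysates. A427 cells received duplicate 3-fold compound dilution series 20 h post-seeding, with 6 h total incubation at 37 °C.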

Wee1 kinase domain = biological target: T1, Wee1 kinase domain (Homo sapiens, UniProt P30291); assay: Wee1 Kinase Biochemical Assay (ADP-Glo); settings: class symbols; 1 nM Wee1 enzyme, 15 uM ATP, 4 hours at 25° C.
T1 construct: Wee1 kinase domain was purchased from Carna (catalog #05-177); purchased Carna 05-177
T1 sequence (P30291 299-569 limits assumed): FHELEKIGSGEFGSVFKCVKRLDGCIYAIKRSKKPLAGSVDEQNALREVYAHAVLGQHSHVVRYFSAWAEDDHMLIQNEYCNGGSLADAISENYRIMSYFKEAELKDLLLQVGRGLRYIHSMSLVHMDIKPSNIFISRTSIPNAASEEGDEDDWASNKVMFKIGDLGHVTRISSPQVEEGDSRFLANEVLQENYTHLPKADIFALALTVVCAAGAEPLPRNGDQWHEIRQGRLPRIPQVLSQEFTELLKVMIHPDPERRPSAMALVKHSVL
Procedure, shortened: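 ADP-Glo detection of ADP produced after 4 h at 25° C by 1 nM Wee1 kinase domain on 2 ng/mL poly(Lys,Tyr 4:1) with 15 uM ATP. Buffer: 40 mM Tris-HCl, 20 mM MgCl2, 0.1 mg/mL BSA, 2 mM DTT. Inhibition is relative to DMSO (high) and saturating Wee1 inhibitor (low) controls.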

Row | Compound | IC50 [1] [nM] | IC50 (Wee1 kinase domain) [nM]
1 | Cc1cc(Nc2ncc3c(n2)N(c2cccc(N4CCOC4=O)n2)[C@@H]2CC(C)(C)OC[C@]32C)ccc1N1C[C@@H]2C[C@H]1CN2C [Example 654, 3-(6-((4bR,8aR)-4b,7,7-trimethyl-2-((3-methyl-4-((1S,4S)-5-methyl-2,5-diazabicyclo[2.2.1]heptan-2-yl)phenyl)amino)-4b,7,8,8a-tetrahydropyrano[3′,4′:4,5]pyrrolo[2,3-d]pyrimidin-9(5H)-yl)pyridin-2-yl)oxazolidin-2-one] | 100 to 1000 | < 10
2 | C[C@H]1CCC(=O)N1c1cccc(N2c3nc(Nc4ccc(N5C[C@H]6C[C@@H]5CN6C)cc4)ncc3[C@@]3(C)COC(C)(C)C[C@@H]23)n1 [Example 657, (S)-5-methyl-1-(6-((4bR,8aR)-4b,7,7-trimethyl-2-((4-((1R,4R)-5-methyl-2,5-diazabicyclo[2.2.1]heptan-2-yl)phenyl)amino)-4b,7,8,8a-tetrahydropyrano[3′,4′:4,5]pyrrolo[2,3-d]pyrimidin-9(5H)-yl)pyridin-2-yl)pyrrolidin-2-one] | 100 to 1000 | < 10
3 | Cc1cc(Nc2ncc3c(n2)N(c2cccc(N4CCCC4=O)n2)[C@@H]2CC(C)(C)OC[C@]32C)ccc1N1C[C@H]2C[C@@H]1CN2C [Example 658, 1-(6-((4bR,8aR)-4b,7,7-trimethyl-2-((3-methyl-4-((1R,4R)-5-methyl-2,5-diazabicyclo[2.2.1]heptan-2-yl)phenyl)amino)-4b,7,8,8a-tetrahydropyrano[3′,4′:4,5]pyrrolo[2,3-d]pyrimidin-9(5H)-yl)pyridin-2-yl)pyrrolidin-2-one] | 100 to 1000 | < 10
4 | Cc1cc(Nc2ncc3c(n2)N(c2cccc(N4CCOC4=O)n2)[C@@H]2CC(C)(C)OC[C@]32C)ccc1N1C[C@H]2C[C@@H]1CN2C [Example 660, 3-(6-((4bR,8aR)-4b,7,7-trimethyl-2-((3-methyl-4-((1R,4R)-5-methyl-2,5-diazabicyclo[2.2.1]heptan-2-yl)phenyl)amino)-4b,7,8,8a-tetrahydropyrano[3′,4′:4,5]pyrrolo[2,3-d]pyrimidin-9(5H)-yl)pyridin-2-yl)oxazolidin-2-one] | 100 to 1000 | < 10
5 | CN1C[C@H]2C[C@@H]1CN2c1ccc(Nc2ncc3c(n2)N(c2cccc(N4CCOC4=O)n2)[C@@H]2CC(C)(C)OC[C@]32C)cc1F [Example 668, 3-(6-((4bR,8aR)-2-((3-fluoro-4-((1R,4R)-5-methyl-2,5-diazabicyclo[2.2.1]heptan-2-yl)phenyl)amino)-4b,7,7-trimethyl-4b,7,8,8a-tetrahydropyrano[3′,4′:4,5]pyrrolo[2,3-d]pyrimidin-9(5H)-yl)pyridin-2-yl)oxazolidin-2-one] | 100 to 1000 | < 10
6 | CN1C[C@@H]2C[C@H]1CN2c1ccc(Nc2ncc3c(n2)N(c2cccc(N4CCOC4=O)n2)[C@@H]2CC(C)(C)OC[C@]32C)cc1F [Example 676, 3-(6-((4bR,8aR)-2-((3-fluoro-4-((1S,4S)-5-methyl-2,5-diazabicyclo[2.2.1]heptan-2-yl)phenyl)amino)-4b,7,7-trimethyl-4b,7,8,8a-tetrahydropyrano[3′,4′:4,5]pyrrolo[2,3-d]pyrimidin-9(5H)-yl)pyridin-2-yl)oxazolidin-2-one] | 100 to 1000 | < 10
7 | CN1CC[C@H]2CN(c3ccc(Nc4ncc5c(n4)N(c4cccc(N6CCOC6=O)n4)[C@@H]4CC(C)(C)OC[C@]54C)cc3)C[C@H]21 [Example 684, 3-(6-((4bR,8aR)-4b,7,7-trimethyl-2-((4-((3aS,6aS)-1-methylhexahydropyrrolo[3,4-b]pyrrol-5(1H)-yl)phenyl)amino)-4b,7,8,8a-tetrahydropyrano[3′,4′:4,5]pyrrolo[2,3-d]pyrimidin-9(5H)-yl)pyridin-2-yl)oxazolidin-2-one] | 100 to 1000 | < 10
8 | CN1CC[C@@H]2CN(c3ccc(Nc4ncc5c(n4)N(c4cccc(N6CCCC6=O)n4)[C@@H]4CC(C)(C)OC[C@]54C)cc3)C[C@@H]21 [Example 686, 1-(6-((4bR,8aR)-4b,7,7-trimethyl-2-((4-((3aR,6aR)-1-methylhexahydropyrrolo[3,4-b]pyrrol-5(1H)-yl)phenyl)amino)-4b,7,8,8a-tetrahydropyrano[3′,4′:4,5]pyrrolo[2,3-d]pyrimidin-9(5H)-yl)pyridin-2-yl)pyrrolidin-2-one] | 100 to 1000 | < 10
9 | CN1CC[C@H]2CN(c3ccc(Nc4ncc5c(n4)N(c4cccc(N6CCCC6=O)n4)[C@@H]4CC(C)(C)OC[C@]54C)cc3)C[C@H]21 [Example 688, 1-(6-((4bR,8aR)-4b,7,7-trimethyl-2-((4-((3aS,6aS)-1-methylhexahydropyrrolo[3,4-b]pyrrol-5(1H)-yl)phenyl)amino)-4b,7,8,8a-tetrahydropyrano[3′,4′:4,5]pyrrolo[2,3-d]pyrimidin-9(5H)-yl)pyridin-2-yl)pyrrolidin-2-one] | < 100 | < 10
10 | CN1CC2(C1)CN(c1ccc(Nc3ncc4c(n3)N(c3cccc(N5CCCC5=O)n3)[C@@H]3CC(C)(C)OC[C@]43C)cc1)C2 [Example 690, 1-(6-((4bR,8aR)-4b,7,7-trimethyl-2-((4-(6-methyl-2,6-diazaspiro[3.3]heptan-2-yl)phenyl)amino)-4b,7,8,8a-tetrahydropyrano[3′,4′:4,5]pyrrolo[2,3-d]pyrimidin-9(5H)-yl)pyridin-2-yl)pyrrolidin-2-one] | 100 to 1000 | < 10
11 | CN1C[C@@H]2CN(c3ccc(Nc4ncc5c(n4)N(c4cccc(N6CCOC6=O)n4)[C@@H]4CC(C)(C)OC[C@]54C)cc3)C[C@@H]2C1 [Example 692, 3-(6-((4bR,8aR)-4b,7,7-trimethyl-2-((4-((3aR,6aS)-5-methylhexahydropyrrolo[3,4-c]pyrrol-2(1H)-yl)phenyl)amino)-4b,7,8,8a-tetrahydropyrano[3′,4′:4,5]pyrrolo[2,3-d]pyrimidin-9(5H)-yl)pyridin-2-yl)oxazolidin-2-one] | 100 to 1000 | < 10

Second part, the compound after the results:

Row | IC50 [1] [nM] | IC50 (Wee1 kinase domain) [nM] | Compound
12 | 100 to 1000 | < 10 | CC1(C)C[C@H]2N(c3cccc(N4CCCC4=O)n3)c3nc(Nc4ccc(C5CNC5)cc4)ncc3[C@@]2(C)CO1 [Example 662, 1-(6-((4bR,8aR)-2-((4-(azetidin-3-yl)phenyl)amino)-4b,7,7-trimethyl-4b,7,8,8a-tetrahydropyrano[3′,4′:4,5]pyrrolo[2,3-d]pyrimidin-9(5H)-yl)pyridin-2-yl)pyrrolidin-2-one]
13 | 100 to 1000 | < 10 | CC1(C)C[C@H]2N(c3cccc(N4CCOC4=O)n3)c3nc(Nc4ccc([C@]5(C)CCNC5)cc4)ncc3[C@@]2(C)CO1 [Example 664, 3-(6-((4bR,8aR)-4b,7,7-trimethyl-2-((4-((S)-3-methylpyrrolidin-3-yl)phenyl)amino)-4b,7,8,8a-tetrahydropyrano[3′,4′:4,5]pyrrolo[2,3-d]pyrimidin-9(5H)-yl)pyridin-2-yl)oxazolidin-2-one]
14 | 100 to 1000 | < 10 | CC1(C)C[C@H]2N(c3cccc(N4CCOC4=O)n3)c3nc(Nc4ccc(C5CNC5)cc4)ncc3[C@@]2(C)CO1 [Example 666, 3-(6-((4bR,8aR)-2-((4-(azetidin-3-yl)phenyl)amino)-4b,7,7-trimethyl-4b,7,8,8a-tetrahydropyrano[3′,4′:4,5]pyrrolo[2,3-d]pyrimidin-9(5H)-yl)pyridin-2-yl)oxazolidin-2-one]
15 | 100 to 1000 | < 10 | CN1CC[C@@](C)(c2ccc(Nc3ncc4c(n3)N(c3cccc(N5CCOC5=O)n3)[C@@H]3CC(C)(C)OC[C@]43C)cc2)C1 [Example 670, 3-(6-((4bR,8aR)-2-((4-((S)-1,3-dimethylpyrrolidin-3-yl)phenyl)amino)-4b,7,7-trimethyl-4b,7,8,8a-tetrahydropyrano[3′,4′:4,5]pyrrolo[2,3-d]pyrimidin-9(5H)-yl)pyridin-2-yl)oxazolidin-2-one]
16 | 100 to 1000 | < 10 | CC1(C)C[C@H]2N(c3cccc(N4CCOC4=O)n3)c3nc(Nc4ccc([C@H]5CNC[C@H]5F)cc4)ncc3[C@@]2(C)CO1 [Example 672, 3-(6-((4bR,8aR)-2-((4-((3S,4S)-4-fluoropyrrolidin-3-yl)phenyl)amino)-4b,7,7-trimethyl-4b,7,8,8a-tetrahydropyrano[3′,4′:4,5]pyrrolo[2,3-d]pyrimidin-9(5H)-yl)pyridin-2-yl)oxazolidin-2-one]
17 | 100 to 1000 | < 10 | CC1(C)C[C@H]2N(c3cccc(N4CCOC4=O)n3)c3nc(Nc4ccc([C@@H]5CNC[C@@H]5F)cc4)ncc3[C@@]2(C)CO1 [Example 675, 3-(6-((4bR,8aR)-2-((4-((3R,4R)-4-fluoropyrrolidin-3-yl)phenyl)amino)-4b,7,7-trimethyl-4b,7,8,8a-tetrahydropyrano[3′,4′:4,5]pyrrolo[2,3-d]pyrimidin-9(5H)-yl)pyridin-2-yl)oxazolidin-2-one]
18 | 100 to 1000 | < 10 | CC1(C)C[C@H]2N(c3cccc(N4CCOC4=O)n3)c3nc(Nc4ccc([C@@H]5CNCC5(F)F)cc4)ncc3[C@@]2(C)CO1 [Example 680, 3-(6-((4bR,8aR)-2-((4-((R)-4,4-difluoropyrrolidin-3-yl)phenyl)amino)-4b,7,7-trimethyl-4b,7,8,8a-tetrahydropyrano[3′,4′:4,5]pyrrolo[2,3-d]pyrimidin-9(5H)-yl)pyridin-2-yl)oxazolidin-2-one]
19 | 100 to 1000 | < 10 | CC1(C)C[C@H]2N(c3cccc(N4CCOC4=O)n3)c3nc(Nc4ccc([C@H]5CNCC5(F)F)cc4)ncc3[C@@]2(C)CO1 [Example 682, 3-(6-((4bR,8aR)-2-((4-((S)-4,4-difluoropyrrolidin-3-yl)phenyl)amino)-4b,7,7-trimethyl-4b,7,8,8a-tetrahydropyrano[3′,4′:4,5]pyrrolo[2,3-d]pyrimidin-9(5H)-yl)pyridin-2-yl)oxazolidin-2-one]
